In data set [1] the test system is lymphocytic leukemia P388. Briefly: Lymphocytic Leukemia P388 Test. The format is in vivo, BDF1 female mice. The settings on record: for T/Cx100 %: survival time treated/control. An excerpt: These have been reported in "Cancer Chemotherapy Reports", Part III, Vol. 3, No. 2 (1972), Geran, et. al. These protocols have established standardized screening tests which are generally followed in the field of testing for antitumor agents. Of these systems, lymphocytic leukemia P388, melanotic melanoma B16, L1210 leukemia and colon 26 adenocarcinoma are particularly significant to the present invention. These neoplasms are utilized for testing as transplantable tumors in mice.
The animals used were BDF1 female mice. There were 5 or 6 mice per test group. The tumor transplant was by intraperitoneal injection of 0.5 ml of dilute ascitic fluid containing 1 x 10^6 cells of lymphocytic leukemia P388 on day zero. The test compounds were administered intraperitoneally at a volume of 0.5 ml in sterile, pyrogen free saline on days 1, 5 and 9 (relative to tumor inoculation) at the indicated doses. The mice were weighed and survivors recorded on a regular basis for 30 days. The median survival time and the ratio of survival time for treated (T)/control (C) animals were calculated. Values of T/C greater than or equal to 125 are considered to reflect significant antitumor activity.

For data set [2], the system named is human colon cancer cell line LS174T. Briefly: In vivo antitumor test, human tumor xenograft LS174T. Further details: species or system athymic (nude) mice. The following applies: no MoAb, iv, three injections started on day 8, day 21 post-implantation.
Data set [3] has as its system human Burkitt lymphoma cell line Raji TC. Description: In vivo antitumor test, human tumor xenograft Raji. Also noted: species or system athymic (nude) mice. The settings on record: no MoAb, iv, three injections starting on day 7, day 35 post-implantation.
Data set [4] relates to human breast cancer cell line MX-1. Briefly: In vivo antitumor test, human tumor xenograft MX-1. The following applies: no MoAb, iv, three injections starting on day 2, day 42 post-implantation. Also noted: species or system athymic (nude) mice. In general terms: In xenograft studies the graft and the host belong to different species.
Setting [5] is: dose 0.0006 mg/kg intraperitoneally on days 1, 5 and 9.
Setting [6] is: dose 0.00125 mg/kg intraperitoneally on days 1, 5 and 9.
The mark [7] stands for this setting: dose 0.0025 mg/kg intraperitoneally on days 1, 5 and 9.
Setting [8] is: dose 0.005 mg/kg intraperitoneally on days 1, 5 and 9.
Setting [9] is: dose 0.0003 mg/kg intraperitoneally on days 1, 5 and 9.
Where [10] appears, read: dose 0.010 mg/kg intraperitoneally on days 1, 5 and 9.
Setting [11] is: dose 0.020 mg/kg intraperitoneally on days 1, 5 and 9.
The mark [12] stands for this setting: dose 0.040 mg/kg intraperitoneally on days 1, 5 and 9.
Setting [13] is: dose 0.080 mg/kg intraperitoneally on days 1, 5 and 9.

In the case of “3-Mercaptobutyryl hydrazide disulfide of LL-E33288γ1-I”, the “Median Survival” value worked out at 19.5 days in data set [1] (setting [5]), 21.0 days in data set [1] (setting [6]), 23.0 days in data set [1] (setting [7]) and 28.5 days in data set [1] (setting [8]). Further, the T/Cx100 % came to 130% in data set [1] (setting [5]), 140% in data set [1] (setting [6]), 153% in data set [1] (setting [7]) and 190% in data set [1] (setting [8]).

For “3-Mercaptoisovaleryl hydrazide disulfide of LL-E33288q1-I”, the “Median Survival” value in data set [1] (setting [9]) turned out to be 14.0 days; in data set [1] (setting [5]) it was 13.0 days; in data set [1] (setting [6]), 16.0 days; in data set [1] (setting [7]), 17.0 days; in data set [1] (setting [8]), 18.0 days; in data set [1] (setting [10]) it was 26.5 days. Besides, the T/Cx100 % in data set [1] (setting [9]) is given as 133%; in data set [1] (setting [5]) it was 124%; in data set [1] (setting [6]), 152%; in data set [1] (setting [7]), 162%; in data set [1] (setting [8]), 171%; in data set [1] (setting [10]), 252%.

On to “3-Mercaptopropionic Acid Disulfide of LL-E33288γ1^I”, for which the T/Cx100 % in data set [1] (setting [7]) was found to be 125%; in data set [1] (setting [8]), 145%.

As to “3-Mercaptopropionyl hydrazide disulfide of LL-E33288α2-I”, the “Median Survival” value in data set [1] (setting [6]) is 18.5 days; in data set [1] (setting [7]), 18.5 days; in data set [1] (setting [8]) it was 21.0 days; in data set [1] (setting [10]) it was 26.5 days. Besides, the T/Cx100 % was determined as 161% in data set [1] (setting [6]), 161% in data set [1] (setting [7]), 183% in data set [1] (setting [8]) and 230% in data set [1] (setting [10]).

For “3-Mercaptopropionyl hydrazide disulfide of N-acetyl LL-E33288γ1^I”, the entries for the “Median Survival” value in data set [1] (setting [11]), in data set [1] (setting [12]) and in data set [1] (setting [13]) were 15.0 days, 18.0 days and 21.0 days, respectively. Besides, the T/Cx100 % in data set [1] (setting [11]) turned out to be 125%; in data set [1] (setting [12]), 150%; in data set [1] (setting [13]), 175%.

Regarding `CC[C@]1(O)C[C@H]2CN(CCc3c([nH]c4ccccc34)[C@@](C(=O)OC)(c3cc4c(cc3OC)N(C=O)[C@H]3[C@@](O)(C(=O)OC)[C@H](OC(C)=O)[C@]5(CC)C=CCN6CC[C@]43[C@@H]65)C2)C1` [Vincristine], in data set [2] (Drug 20 mcg), the S/T is 6/6 and the “Tumor Size (T/C)%control” value turned out to be 23 %control.

On to “Hydrazide of 3-mercaptopropionic acid disulfide of N-acetyl LL-E33288δ1^I [Hydrazide alone]”, for which, in data set [3] (Drug 1.0 mcg), the S/T was 6/6 and the “Tumor Size (T/C)%control” value amounted to 517 %control. In data set [4] (Drug 2.0 mcg), the S/T is 3/6 and the “Tumor Size (T/C)%control” value amounted to 71 %control.

“N-acetyl LL-E33288δ1^I [reference compound]”: the S/T in data set [3] (Drug 0.5 mcg) is 6/6; in data set [4] (Drug 1.0 mcg), 2/6; in data set [2] (Drug 2.0 mcg), 1/6. Further, the “Tumor Size (T/C)%control” value in data set [3] (Drug 0.5 mcg) is recorded as 226 %control; in data set [4] (Drug 1.0 mcg), 46 %control; in data set [2] (Drug 2.0 mcg) it was 32 %control.
